Earlier results, collected in the PKSmart pharmacokinetics tables (Seal et al. 2025).

What was measured:
[1] = not given per row; by the article one of three: Lombardo et al. 2013, J Clin Pharmacol 53:178, doi 10.1177/0091270012440282; 'New Drugs at FDA', novel drug approvals for 2021 and 2022 (the article's reference 43); Yap, Li, Chen 2006, J Mol Graph Model 24:383, doi 10.1016; conditions: human; for fraction unbound: plasma
[2] = Lombardo et al. 2013, J Clin Pharmacol 53:178, doi 10.1177/0091270012440282; conditions: for Vd / clearance: in vivo, iv; for fraction unbound: plasma

CON=C(C(=O)NC1C(=O)N2C(C(=O)O)=C(CSc3nc(=O)c(=O)[nH]n3C)CS[C@H]12)c1csc(N)n1 (some centres not stated)
Vd ([1]; in vivo): 0.09 L/kg
clearance ([1]; in vivo): 0.0147 L/h/kg
Vd ([2]; dog): 0.25 L/kg
clearance ([2]; dog): 0.237 L/h/kg
fraction unbound ([2]; dog): 0.717
Vd ([2]; monkey): 0.11 L/kg
clearance ([2]; monkey): 0.0114 L/h/kg
fraction unbound ([2]; monkey): 0.0487
Vd ([2]; rat): 1 L/kg
clearance ([2]; rat): 1.2 L/h/kg
fraction unbound ([2]; rat): 0.071

CNC(C)C1CCC(N)C(OC2C(N)CC(N)C(OC3OCC(C)(O)C(NC)C3O)C2O)O1 (configuration not stated)
clearance ([1]; in vivo): 0.06 L/h/kg
Vd ([2]; dog): 0.33 L/kg
clearance ([2]; dog): 0.126 L/h/kg
Vd ([2]; rat): 0.33 L/kg
clearance ([2]; rat): 0.468 L/h/kg

COc1ccccc1Oc1c(NS(=O)(=O)c2ccc(C(C)C)cn2)nc(-c2ccnc(-c3nn[nH]n3)c2)nc1OCCO
clearance ([1]; in vivo): 0.543 L/h/kg
Vd ([2]; monkey): 0.21 L/kg
clearance ([2]; monkey): 0.936 L/h/kg
Vd ([2]; rat): 0.27 L/kg
clearance ([2]; rat): 0.258 L/h/kg

O=C1C=CC=CC1=C1NC(=C2C=CC=CC2=O)N(c2ccc(C(=O)O)cc2)N1
Vd ([1]; in vivo): 0.2 L/kg
clearance ([1]; in vivo): 0.0504 L/h/kg
Vd ([2]; rat): 0.46 L/kg
clearance ([2]; rat): 0.372 L/h/kg

CN(C)C1C(=O)C(C(N)=O)=C(O)[C@@]2(O)C(=O)C3=C(O)c4c(O)cccc4[C@@](C)(O)[C@H]3[C@H](O)[C@@H]12 (some centres not stated)
Vd ([1]; in vivo): 1.7 L/kg
clearance ([1]; in vivo): 0.12 L/h/kg
Vd ([2]; dog): 1.01 L/kg
clearance ([2]; dog): 0.0882 L/h/kg

O=c1ncnc2[nH][nH]cc1-2
Vd ([1]; in vivo): 0.58 L/kg
Vd ([2]; dog): 0.16 L/kg

COCCOCC(CC1(C(=O)NC2CCC(C(=O)O)CC2)CCCC1)C(=O)O (configuration not stated)
Vd ([1]; in vivo): 0.25 L/kg
clearance ([1]; in vivo): 0.138 L/h/kg
clearance ([2]; dog): 0.348 L/h/kg
clearance ([2]; rat): 0.9 L/h/kg
fraction unbound ([2]; rat): 0.23

CON=C(C(=O)NC1C(=O)N2C(C(=O)[O-])=C(Cn3cc[n+]4ncccc34)CS[C@H]12)c1nsc(N)n1 (some centres not stated)
Vd ([1]; in vivo): 0.24 L/kg
clearance ([1]; in vivo): 0.126 L/h/kg
Vd ([2]; dog): 0.2 L/kg
clearance ([2]; dog): 0.18 L/h/kg
fraction unbound ([2]; dog): 0.9
Vd ([2]; monkey): 0.2 L/kg
clearance ([2]; monkey): 0.114 L/h/kg
fraction unbound ([2]; monkey): 0.9
Vd ([2]; rat): 0.2 L/kg
clearance ([2]; rat): 0.564 L/h/kg
fraction unbound ([2]; rat): 0.93

CCCn1c(=O)[nH]c(=O)c2[nH]cnc21
clearance ([1]; in vivo): 0.25 L/h/kg
Vd ([2]; dog): 0.64 L/kg
clearance ([2]; dog): 0.144 L/h/kg
fraction unbound ([2]; dog): 0.61
Vd ([2]; rat): 0.27 L/kg
clearance ([2]; rat): 0.72 L/h/kg
fraction unbound ([2]; rat): 0.19

CC(C)(C)S(=O)(=O)CC(Cc1ccccc1)C(=O)NC(Cc1cnc[nH]1)C(=O)N[C@@H](CC1CCCCC1)[C@@H](O)[C@@H](O)C1CC1 (some centres not stated)
Vd ([1]; in vivo): 0.77 L/kg
clearance ([1]; in vivo): 0.696 L/h/kg
Vd ([2]; dog): 1.52 L/kg
clearance ([2]; dog): 1.48 L/h/kg
fraction unbound ([2]; dog): 0.0802
Vd ([2]; monkey): 1.7 L/kg
clearance ([2]; monkey): 1.2 L/h/kg
fraction unbound ([2]; monkey): 0.167
Vd ([2]; rat): 4.4 L/kg
clearance ([2]; rat): 7.14 L/h/kg
fraction unbound ([2]; rat): 0.053

C[C@H]1CO[C@@H]2Cn3cc(C(=O)NCc4ccc(F)cc4F)c(=O)c(O)c3C(=O)N12
fraction unbound [1]: 0.48

O=C(O)c1cc(O)c2c(c1)C(=O)c1cccc(O)c1C2=O
clearance ([1]; in vivo): 0.0228 L/h/kg

CC(C)(C)NC[C@@H](O)COc1cccc2c1SCCC2
clearance ([1]; in vivo): 0.112 L/h/kg

CC(C)Nc1nc2cc(Cl)c(Cl)cc2n1[C@H]1O[C@@H](CO)[C@H](O)[C@@H]1O
Vd ([1]; in vivo): 0.46 L/kg
clearance ([1]; in vivo): 0.0474 L/h/kg
half-life ([1]; in vivo): 4.32 h
fraction unbound [1]: 0.02

CON=C(C(=O)NC1C(=O)N2C(C(=O)O)=C(C)CS[C@@H]12)c1csc(N)n1 (some centres not stated)
clearance ([1]; in vivo): 0.12 L/h/kg

NC(C(=O)NC1C(=O)N2C(C(=O)O)=C(Cl)CC[C@@H]12)c1ccccc1 (some centres not stated)
clearance ([1]; in vivo): 0.267 L/h/kg

CSc1ccc(OCc2ncc([N+](=O)[O-])n2C)cc1
fraction unbound [1]: 0.02

C/N=C1/CN(O)C(c2ccccc2)=c2cc(Cl)ccc2=N1
Vd ([1]; in vivo): 0.25 L/kg
Vd ([2]; rat): 1.3 L/kg
clearance ([2]; rat): 0.468 L/h/kg
fraction unbound ([2]; rat): 0.15

COC(=O)C1C=C2CC(=O)CC[C@]2(C)[C@@]23O[C@H]2C[C@@]2(C)[C@H](CC[C@]24CCC(=O)O4)[C@@H]13 (some centres not stated)
clearance ([1]; in vivo): 0.143 L/h/kg

NS(=O)(=O)c1cc(-c2nn[nH]n2)c(NCc2cccs2)cc1Cl
clearance ([1]; in vivo): 0.0774 L/h/kg

O=c1[nH]c(=O)n([C@@H]2CCCO2)cc1F
clearance ([1]; in vivo): 0.0588 L/h/kg

CN(C)CCOc1ccc(/C(=C(\CCCl)c2ccccc2)c2ccccc2)cc1
clearance ([1]; in vivo): 0.0726 L/h/kg

Nc1nc2c(ncn2CCC(CO)CO)c(=O)[nH]1
clearance ([1]; in vivo): 0.562 L/h/kg

O=C(O)C1=C(CSc2nnnn2CS(=O)(=O)O)CS[C@H]2C(NC(=O)C(O)c3ccccc3)C(=O)N12 (some centres not stated)
clearance ([1]; in vivo): 0.0198 L/h/kg

CC(C)N(CC[C@@](C(N)=O)(c1ccccc1)c1ccccn1)C(C)C
clearance ([1]; in vivo): 0.162 L/h/kg

COC(=O)C(c1ccccc1)[C@@H]1CCCCN1 (some centres not stated)
clearance ([1]; in vivo): 0.566 L/h/kg

O=C(O)CN1C(=O)C(NC(CCc2ccccc2)C(=O)O)CCc2ccccc21 (configuration not stated)
clearance ([1]; in vivo): 0.021 L/h/kg

CCC(C)C(=O)O[C@@H]1C[C@@H](O)C=C2C=C[C@@H](C)[C@H](CC[C@H](O)C[C@H](O)CC(=O)O)[C@H]21 (some centres not stated)
clearance ([1]; in vivo): 0.51 L/h/kg

C=CC(=O)N1CCN(c2nc(=O)n(-c3c(C)ccnc3C(C)C)c3nc(-c4c(O)cccc4F)c(F)cc23)[C@@H](C)C1
Vd ([1]; in vivo): 3.52 L/kg
clearance ([1]; in vivo): 0.437 L/h/kg
fraction unbound [1]: 0.11
